Results reported in the supplement of paper PMC10307832.

Columns and labels:
Assay in all cases: relative viability (nuclei count vs DMSO), 5 days (fraction); higher = more cells survive
[1] = compound: C(C(=O)C(=O)O)Br [Bromopyruvate] + CC(=O)c1c(C)c2cnc(Nc3ccc(N4CCNCC4)cn3)nc2n(C2CCCC2)c1=O [Palbociclib] (partner 0.5 µM)
Outline: (§1)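 Each reported value is a median over duplicate plates. It expresses relative viability: treated-well nuclei count divided by vehicle-well nuclei count. Lung cancer cell lines in 1536-well plates were dosed by pin tool a day after seeding, alone with one drug or with a fixed anchor-drug dose plus five library-drug doses (not always all listed) in √10 steps, and nuclei were counted after 5 days.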

[2] = compound: CC(O)(CS(=O)(=O)c1ccc(F)cc1)C(=O)Nc1ccc(C#N)c(C(F)(F)F)c1 [Bicalutamide] + CC(=O)c1c(C)c2cnc(Nc3ccc(N4CCNCC4)cn3)nc2n(C2CCCC2)c1=O [Palbociclib] (partner 0.5 µM)
Outline: as §1

[3] = compound: C(C(=O)C(=O)O)Br [Bromopyruvate] + CCNC(=O)c1noc(-c2cc(C(C)C)c(O)cc2O)c1-c1ccc(CN2CCOCC2)cc1 [Luminespib] (partner 0.01 µM)
Outline: as §1

Bromopyruvate + AZD7762 = compound: C(C(=O)C(=O)O)Br [Bromopyruvate] + NC(=O)Nc1cc(-c2cccc(F)c2)sc1C(=O)N[C@H]1CCCNC1 [AZD7762] (partner 0.2 µM)
Outline: as §1

Row | Cell Line | relative viability ([1]; first compound 1 µM) | relative viability ([1]; first compound 3.162 µM) | relative viability ([1]; first compound 10 µM) | relative viability ([1]; first compound 31.62 µM) | relative viability ([1]; first compound 100 µM) | relative viability ([2]; first compound 0.08 µM) | relative viability ([2]; first compound 0.253 µM) | relative viability ([2]; first compound 0.8 µM) | relative viability ([2]; first compound 2.53 µM) | relative viability ([3]; first compound 1 µM) | relative viability ([3]; first compound 3.162 µM) | relative viability ([3]; first compound 10 µM) | relative viability ([3]; first compound 31.62 µM) | relative viability ([3]; first compound 100 µM) | relative viability (Bromopyruvate + AZD7762; first compound 1 µM) | relative viability (Bromopyruvate + AZD7762; first compound 3.162 µM) | relative viability (Bromopyruvate + AZD7762; first compound 10 µM) | relative viability (Bromopyruvate + AZD7762; first compound 31.62 µM) | relative viability (Bromopyruvate + AZD7762; first compound 100 µM)
1 | COR-L23 | 0.239 | 0.283 | 0.232 | 0.255 | 0.178 | 0.359 | 0.293 | 0.353 | 0.269 | 0.611 | 0.602 | 0.815 | 0.694 | 0.119 | – | – | – | – | –
2 | ABC-1 | 0.662 | – | – | – | 0.792 | 0.698 | 0.474 | 0.808 | 0.601 | 0.519 | 0.823 | 0.575 | 0.499 | 0.234 | 0.532 | 0.995 | 0.951 | 0.834 | 0.734
3 | SW 900 | 0.524 | 0.486 | 0.536 | 0.589 | 0.5 | 0.602 | 0.596 | 0.529 | 0.511 | 0.16 | 0.173 | 0.197 | 0.166 | 0.21 | 0.629 | 0.528 | 0.519 | 0.564 | 0.66
4 | PC-14 | 0.577 | 0.538 | 0.686 | 0.573 | 0.411 | 0.583 | 0.466 | 0.677 | 0.422 | 0.191 | 0.184 | 0.169 | 0.157 | 0.203 | 0.483 | 0.401 | 0.407 | 0.412 | 0.384
5 | NCI-H1648 | 0.211 | 0.242 | 0.283 | 0.298 | 0.328 | – | – | 0.317 | 0.254 | – | – | – | – | – | 0.671 | 0.721 | 0.713 | 0.623 | 0.551
6 | A-427 | 0.51 | 0.552 | 0.551 | 0.536 | 0.497 | 0.547 | 0.54 | 0.56 | 0.526 | 0.763 | 1.04 | 0.918 | 0.971 | 0.817 | 0.782 | 0.747 | 0.883 | 0.66 | 0.755
7 | NCI-H1792 | 0.673 | 0.698 | 0.684 | – | 0.656 | 0.653 | 0.569 | 0.759 | 0.614 | 0.664 | 0.487 | 0.53 | 0.573 | 0.423 | 0.678 | 0.783 | 0.792 | 0.798 | 0.655
8 | LCLC-97TM1 | 0.203 | 0.21 | 0.276 | 0.239 | 0.214 | 0.227 | 0.216 | 0.3 | 0.225 | 0.727 | 0.792 | 0.864 | 0.708 | 0.709 | 0.224 | 0.375 | 0.207 | 0.275 | 0.236
9 | NCI-H1703 | – | – | – | – | – | – | – | – | – | – | – | – | – | – | 0.119 | 0.124 | 0.138 | 0.13 | 0.0978
10 | LCLC-103H | 0.505 | 0.486 | 0.455 | 0.415 | 0.528 | 0.467 | 0.478 | 0.53 | 0.51 | 0.963 | 0.998 | 1.05 | 0.938 | 0.878 | 0.726 | 0.804 | 0.951 | 0.751 | 0.901
11 | RERF-LC-KJ | 1.04 | 1.18 | 1.19 | 1.14 | 0.966 | 1.08 | 1.05 | 1.17 | 0.865 | 1.28 | 1.32 | 1.2 | 1.21 | 1.23 | 0.97 | 1.04 | 1.29 | 0.978 | 0.889
12 | SW 1573 | 0.401 | 0.395 | 0.373 | 0.266 | 0.0467 | 0.418 | 0.451 | 0.457 | 0.351 | 0.214 | 0.212 | 0.562 | 0.135 | 0.0625 | – | – | – | – | –
13 | COR-L 105 | 0.404 | 0.396 | 0.415 | 0.374 | 0.429 | 0.405 | 0.407 | 0.379 | 0.379 | 0.775 | 0.827 | 0.925 | 0.692 | 0.552 | – | – | – | – | –
14 | NCI-H2009 | 0.208 | 0.214 | 0.227 | 0.179 | 0.0903 | 0.241 | 0.246 | 0.252 | 0.255 | 1 | 1.09 | 0.953 | 1.01 | 0.708 | – | – | – | – | –
15 | SK-LU-1 | 0.372 | 0.363 | 0.365 | 0.346 | 0.428 | 0.403 | 0.452 | 0.43 | 0.378 | 0.213 | 0.195 | 0.208 | 0.194 | 0.215 | – | – | – | – | –
16 | HCC-366 | 0.405 | 0.361 | 0.43 | 0.395 | 0.38 | 0.368 | 0.383 | 0.583 | 0.359 | – | – | – | – | – | 0.272 | 0.346 | 0.197 | 0.254 | 0.249
17 | SK-MES-1 | 0.352 | 0.344 | 0.29 | 0.32 | 0.319 | 0.319 | 0.3 | 0.3 | 0.281 | 0.615 | 0.882 | 0.948 | 0.805 | 0.881 | – | – | – | – | –
18 | NCI-H520 | 0.235 | 0.209 | 0.228 | 0.232 | 0.267 | 0.188 | 0.185 | 0.286 | 0.226 | 0.223 | 0.216 | 0.228 | 0.182 | 0.242 | – | – | – | – | –
19 | NCI-H661 | 0.401 | 0.387 | 0.378 | 0.403 | 0.428 | 0.418 | 0.409 | 0.424 | 0.388 | 0.882 | 0.969 | 0.964 | 0.91 | 0.892 | – | – | – | – | –
20 | NCI-H2228 | 0.791 | 0.9 | 0.665 | 0.85 | 0.775 | 0.797 | 0.775 | 0.745 | 0.779 | 0.182 | 0.144 | 0.148 | 0.145 | 0.193 | – | – | – | – | –
21 | NCI-H596 | – | – | – | – | – | – | – | – | – | 1.05 | 1.02 | 1.14 | 0.951 | 0.282 | 1.08 | 1.28 | 1.12 | 1.17 | 0.993
22 | NCI-H2023 | 0.406 | 0.382 | 0.4 | 0.411 | 0.385 | 0.406 | 0.373 | 0.408 | 0.286 | 0.77 | 0.883 | 0.789 | 0.65 | 0.901 | – | – | – | – | –
